# Test system: BT-20
# Assay: Anti-proliferation assay (ATPLite), Chalice synergy score
# Type: cell-based
# Design: scale not given here
# Conditions: Compound 1 in combination with the named second active agent, 72 h, mean of n = 3 experiments in triplicate
# From the text: (§1) Cells were thawed from a liquid nitrogen preserved state.
# (§2) The calculation for synergy score is provided below.
# (§3) If T≧V0:100*[1−(T−V0)/(V−V0)]
row,Structure (SMILES),Synergy score
1,N#Cc1c(O)c2c(-c3ccc(-c4ccccc4O)cc3)csc2[nH]c1=O [Compound A769662],0.11
2,NS(=O)(=O)OC[C@@H]1C[C@@H](n2ccc3c(N[C@H]4CCc5ccccc54)ncnc32)C[C@@H]1O [MLN-4924],1.78
3,N.N.O=C([O-])C1(C(=O)[O-])CCC1.[Pt+2] [Carboplatin],0.98
4,C[C@@H](Oc1cc(-c2cnn(C3CCNCC3)c2)cnc1N)c1c(Cl)ccc(F)c1Cl [Crizotinib],2.70
5,C[C@@H]1CN(CC(=O)Nc2ccc3c(c2)Cc2cccc(-c4cc(=O)cc(N5CCOCC5)o4)c2S3)C[C@H](C)O1 [KU-60019],0.05

# Test system: HCC-1187
# Assay: as above
# Type: cell-based
# Design: scale not given here
# Conditions: Compound 1 in combination with the named second active agent, 72 h, mean of n = 3 experiments in triplicate
# From the text: as §1, §2, §3
row,Structure (SMILES),Synergy score
1,N#Cc1c(O)c2c(-c3ccc(-c4ccccc4O)cc3)csc2[nH]c1=O [Compound A769662],3.70
2,NS(=O)(=O)OC[C@@H]1C[C@@H](n2ccc3c(N[C@H]4CCc5ccccc54)ncnc32)C[C@@H]1O [MLN-4924],7.09
3,N.N.O=C([O-])C1(C(=O)[O-])CCC1.[Pt+2] [Carboplatin],2.20
4,C[C@@H](Oc1cc(-c2cnn(C3CCNCC3)c2)cnc1N)c1c(Cl)ccc(F)c1Cl [Crizotinib],2.32
5,C[C@@H]1CN(CC(=O)Nc2ccc3c(c2)Cc2cccc(-c4cc(=O)cc(N5CCOCC5)o4)c2S3)C[C@H](C)O1 [KU-60019],1.24

# Test system: HCC-1500
# Assay: as above
# Type: cell-based
# Design: scale not given here
# Conditions: Compound 1 in combination with the named second active agent, 72 h, mean of n = 3 experiments in triplicate
# From the text: as §1, §2, §3
row,Structure (SMILES),Synergy score
1,N#Cc1c(O)c2c(-c3ccc(-c4ccccc4O)cc3)csc2[nH]c1=O [Compound A769662],0.80
2,NS(=O)(=O)OC[C@@H]1C[C@@H](n2ccc3c(N[C@H]4CCc5ccccc54)ncnc32)C[C@@H]1O [MLN-4924],1.31
3,C[C@@H]1CN(CC(=O)Nc2ccc3c(c2)Cc2cccc(-c4cc(=O)cc(N5CCOCC5)o4)c2S3)C[C@H](C)O1 [KU-60019],0.98

# Test system: BT-474
# Assay: as above
# Type: cell-based
# Conditions: Compound 1 in combination with the named second active agent, 72 h, mean of n = 3 experiments in triplicate
# From the text: as §1, §2, §3
row,Structure (SMILES),Synergy score
1,NS(=O)(=O)OC[C@@H]1C[C@@H](n2ccc3c(N[C@H]4CCc5ccccc54)ncnc32)C[C@@H]1O [MLN-4924],8.59
2,N.N.O=C([O-])C1(C(=O)[O-])CCC1.[Pt+2] [Carboplatin],0.30
3,C[C@@H](Oc1cc(-c2cnn(C3CCNCC3)c2)cnc1N)c1c(Cl)ccc(F)c1Cl [Crizotinib],1.07

# Test system: BT-549
# Assay: as above
# Type: cell-based
# Conditions: Compound 1 in combination with the named second active agent, 72 h, mean of n = 3 experiments in triplicate
# From the text: as §1, §2, §3
row,Structure (SMILES),Synergy score
1,N#Cc1c(O)c2c(-c3ccc(-c4ccccc4O)cc3)csc2[nH]c1=O [Compound A769662],0.29
2,NS(=O)(=O)OC[C@@H]1C[C@@H](n2ccc3c(N[C@H]4CCc5ccccc54)ncnc32)C[C@@H]1O [MLN-4924],2.83
3,N.N.O=C([O-])C1(C(=O)[O-])CCC1.[Pt+2] [Carboplatin],0.72
4,C[C@@H](Oc1cc(-c2cnn(C3CCNCC3)c2)cnc1N)c1c(Cl)ccc(F)c1Cl [Crizotinib],0.94
5,C[C@@H]1CN(CC(=O)Nc2ccc3c(c2)Cc2cccc(-c4cc(=O)cc(N5CCOCC5)o4)c2S3)C[C@H](C)O1 [KU-60019],0.18

# Test system: HCC-1428
# Assay: as above
# Type: cell-based
# Conditions: Compound 1 in combination with the named second active agent, 72 h, mean of n = 3 experiments in triplicate
# From the text: as §1, §2, §3
row,Structure (SMILES),Synergy score
1,N#Cc1c(O)c2c(-c3ccc(-c4ccccc4O)cc3)csc2[nH]c1=O [Compound A769662],0.34
2,NS(=O)(=O)OC[C@@H]1C[C@@H](n2ccc3c(N[C@H]4CCc5ccccc54)ncnc32)C[C@@H]1O [MLN-4924],3.68
3,N.N.O=C([O-])C1(C(=O)[O-])CCC1.[Pt+2] [Carboplatin],0.52
4,C[C@@H]1CN(CC(=O)Nc2ccc3c(c2)Cc2cccc(-c4cc(=O)cc(N5CCOCC5)o4)c2S3)C[C@H](C)O1 [KU-60019],0.11

# Test system: HCC-1806
# Assay: as above
# Type: cell-based
# Conditions: Compound 1 in combination with the named second active agent, 72 h, mean of n = 3 experiments in triplicate
# From the text: as §1, §2, §3
row,Structure (SMILES),Synergy score
1,N#Cc1c(O)c2c(-c3ccc(-c4ccccc4O)cc3)csc2[nH]c1=O [Compound A769662],0.54
2,NS(=O)(=O)OC[C@@H]1C[C@@H](n2ccc3c(N[C@H]4CCc5ccccc54)ncnc32)C[C@@H]1O [MLN-4924],2.90
3,N.N.O=C([O-])C1(C(=O)[O-])CCC1.[Pt+2] [Carboplatin],0.44
4,C[C@@H](Oc1cc(-c2cnn(C3CCNCC3)c2)cnc1N)c1c(Cl)ccc(F)c1Cl [Crizotinib],3.08
5,C[C@@H]1CN(CC(=O)Nc2ccc3c(c2)Cc2cccc(-c4cc(=O)cc(N5CCOCC5)o4)c2S3)C[C@H](C)O1 [KU-60019],0.38

# Test system: HCC-1937
# Assay: as above
# Type: cell-based
# Conditions: Compound 1 in combination with the named second active agent, 72 h, mean of n = 3 experiments in triplicate
# From the text: as §1, §2, §3
row,Structure (SMILES),Synergy score
1,N#Cc1c(O)c2c(-c3ccc(-c4ccccc4O)cc3)csc2[nH]c1=O [Compound A769662],0.07
2,NS(=O)(=O)OC[C@@H]1C[C@@H](n2ccc3c(N[C@H]4CCc5ccccc54)ncnc32)C[C@@H]1O [MLN-4924],9.15
3,N.N.O=C([O-])C1(C(=O)[O-])CCC1.[Pt+2] [Carboplatin],2.46
4,C[C@@H](Oc1cc(-c2cnn(C3CCNCC3)c2)cnc1N)c1c(Cl)ccc(F)c1Cl [Crizotinib],2.90
5,C[C@@H]1CN(CC(=O)Nc2ccc3c(c2)Cc2cccc(-c4cc(=O)cc(N5CCOCC5)o4)c2S3)C[C@H](C)O1 [KU-60019],0.04

# Test system: HCC70
# Assay: as above
# Type: cell-based
# Conditions: Compound 1 in combination with second active agent; HCC-70; mean self-cross + 2σ threshold 3.45
# From the text: as §1, §2, §3
row,Structure (SMILES),Synergy score
1,N#Cc1c(O)c2c(-c3ccc(-c4ccccc4O)cc3)csc2[nH]c1=O [Compound A769662],0.07
2,NS(=O)(=O)OC[C@@H]1C[C@@H](n2ccc3c(N[C@H]4CCc5ccccc54)ncnc32)C[C@@H]1O [MLN-4924],0.46
3,N.N.O=C([O-])C1(C(=O)[O-])CCC1.[Pt+2] [Carboplatin],2.26
4,C[C@@H](Oc1cc(-c2cnn(C3CCNCC3)c2)cnc1N)c1c(Cl)ccc(F)c1Cl [Crizotinib],3.31
5,C[C@@H]1CN(CC(=O)Nc2ccc3c(c2)Cc2cccc(-c4cc(=O)cc(N5CCOCC5)o4)c2S3)C[C@H](C)O1 [KU-60019],0.21

# Test system: Hs-578-T
# Assay: as above
# Type: cell-based
# Conditions: Compound 1 in combination with second active agent, mean self-cross + 2σ threshold 4.09
# From the text: as §1, §2, §3
row,Structure (SMILES),Synergy score
1,N#Cc1c(O)c2c(-c3ccc(-c4ccccc4O)cc3)csc2[nH]c1=O [Compound A769662],0.39
2,NS(=O)(=O)OC[C@@H]1C[C@@H](n2ccc3c(N[C@H]4CCc5ccccc54)ncnc32)C[C@@H]1O [MLN-4924],3.55
3,N.N.O=C([O-])C1(C(=O)[O-])CCC1.[Pt+2] [Carboplatin],1.65
4,C[C@@H]1CN(CC(=O)Nc2ccc3c(c2)Cc2cccc(-c4cc(=O)cc(N5CCOCC5)o4)c2S3)C[C@H](C)O1 [KU-60019],0.11

# Test system: MCF7
# Assay: as above
# Type: cell-based
# Conditions: Compound 1 in combination with second active agent, mean self-cross + 2σ threshold 3.07
# From the text: as §1, §2, §3
row,Structure (SMILES),Synergy score
1,N#Cc1c(O)c2c(-c3ccc(-c4ccccc4O)cc3)csc2[nH]c1=O [Compound A769662],0.46
2,NS(=O)(=O)OC[C@@H]1C[C@@H](n2ccc3c(N[C@H]4CCc5ccccc54)ncnc32)C[C@@H]1O [MLN-4924],0.94
3,N.N.O=C([O-])C1(C(=O)[O-])CCC1.[Pt+2] [Carboplatin],0.80
4,C[C@@H](Oc1cc(-c2cnn(C3CCNCC3)c2)cnc1N)c1c(Cl)ccc(F)c1Cl [Crizotinib],3.06
5,C[C@@H]1CN(CC(=O)Nc2ccc3c(c2)Cc2cccc(-c4cc(=O)cc(N5CCOCC5)o4)c2S3)C[C@H](C)O1 [KU-60019],0.04

# Test system: MDA-MB-157
# Assay: as above
# Type: cell-based
# Conditions: Compound 1 in combination with second active agent, mean self-cross + 2σ threshold 4.68
# From the text: as §1, §2, §3
row,Structure (SMILES),Synergy score
1,N#Cc1c(O)c2c(-c3ccc(-c4ccccc4O)cc3)csc2[nH]c1=O [Compound A769662],0.70
2,NS(=O)(=O)OC[C@@H]1C[C@@H](n2ccc3c(N[C@H]4CCc5ccccc54)ncnc32)C[C@@H]1O [MLN-4924],6.73
3,N.N.O=C([O-])C1(C(=O)[O-])CCC1.[Pt+2] [Carboplatin],1.77
4,C[C@@H](Oc1cc(-c2cnn(C3CCNCC3)c2)cnc1N)c1c(Cl)ccc(F)c1Cl [Crizotinib],2.97
5,C[C@@H]1CN(CC(=O)Nc2ccc3c(c2)Cc2cccc(-c4cc(=O)cc(N5CCOCC5)o4)c2S3)C[C@H](C)O1 [KU-60019],0.13

# Test system: MDA-MB-231
# Assay: as above
# Type: cell-based
# Conditions: Compound 1 in combination with second active agent, mean self-cross + 2σ threshold 2.61
# From the text: as §1, §2, §3
row,Structure (SMILES),Synergy score
1,N#Cc1c(O)c2c(-c3ccc(-c4ccccc4O)cc3)csc2[nH]c1=O [Compound A769662],0.17
2,N.N.O=C([O-])C1(C(=O)[O-])CCC1.[Pt+2] [Carboplatin],0.45
3,C[C@@H]1CN(CC(=O)Nc2ccc3c(c2)Cc2cccc(-c4cc(=O)cc(N5CCOCC5)o4)c2S3)C[C@H](C)O1 [KU-60019],0.08

# Test system: MDA-MB-436
# Assay: as above
# Type: cell-based
# Conditions: Compound 1 in combination with second active agent, mean self-cross + 2σ threshold 1.91
# From the text: as §1, §2, §3
row,Structure (SMILES),Synergy score
1,N#Cc1c(O)c2c(-c3ccc(-c4ccccc4O)cc3)csc2[nH]c1=O [Compound A769662],0.06
2,N.N.O=C([O-])C1(C(=O)[O-])CCC1.[Pt+2] [Carboplatin],1.10
3,C[C@@H](Oc1cc(-c2cnn(C3CCNCC3)c2)cnc1N)c1c(Cl)ccc(F)c1Cl [Crizotinib],1.30
4,C[C@@H]1CN(CC(=O)Nc2ccc3c(c2)Cc2cccc(-c4cc(=O)cc(N5CCOCC5)o4)c2S3)C[C@H](C)O1 [KU-60019],0.13

# Test system: MDA-MB-468
# Assay: as above
# Type: cell-based
# Conditions: Compound 1 in combination with second active agent, mean self-cross + 2σ threshold 4.66
# From the text: as §1, §2, §3
row,Structure (SMILES),Synergy score
1,N#Cc1c(O)c2c(-c3ccc(-c4ccccc4O)cc3)csc2[nH]c1=O [Compound A769662],0.77
2,NS(=O)(=O)OC[C@@H]1C[C@@H](n2ccc3c(N[C@H]4CCc5ccccc54)ncnc32)C[C@@H]1O [MLN-4924],15.10
3,N.N.O=C([O-])C1(C(=O)[O-])CCC1.[Pt+2] [Carboplatin],7.18
4,C[C@@H]1CN(CC(=O)Nc2ccc3c(c2)Cc2cccc(-c4cc(=O)cc(N5CCOCC5)o4)c2S3)C[C@H](C)O1 [KU-60019],0.19

# — US9737535B2, “Methods for treating cancer using TOR kinase inhibitor combination therapy comprising administering substituted pyrazino[2,3-b]pyrazines” (Signal Pharmaceuticals, LLC, priority 2014, dated 2017)
